In paper PMC8369186, “Ligand-Based and Docking-Based Virtual Screening of MDM2 Inhibitors as Potent Anticancer Agents” (Computational and Mathematical Methods in Medicine, 2021):
Read-outs that look alike come from different tables or passages of the source.

Columns and labels:
MDM2 = MDM2 (Homo sapiens, UniProt Q00987); assay: MDM2 binding assay (fluorescence polarization); details: for Inhibition (200 μM, %): 200 μM compound; for inhibition at 200 µM: read-out: Inhibition (200 μM, %), 200 μM compound
MDM2, sequence (Q00987 whole entry): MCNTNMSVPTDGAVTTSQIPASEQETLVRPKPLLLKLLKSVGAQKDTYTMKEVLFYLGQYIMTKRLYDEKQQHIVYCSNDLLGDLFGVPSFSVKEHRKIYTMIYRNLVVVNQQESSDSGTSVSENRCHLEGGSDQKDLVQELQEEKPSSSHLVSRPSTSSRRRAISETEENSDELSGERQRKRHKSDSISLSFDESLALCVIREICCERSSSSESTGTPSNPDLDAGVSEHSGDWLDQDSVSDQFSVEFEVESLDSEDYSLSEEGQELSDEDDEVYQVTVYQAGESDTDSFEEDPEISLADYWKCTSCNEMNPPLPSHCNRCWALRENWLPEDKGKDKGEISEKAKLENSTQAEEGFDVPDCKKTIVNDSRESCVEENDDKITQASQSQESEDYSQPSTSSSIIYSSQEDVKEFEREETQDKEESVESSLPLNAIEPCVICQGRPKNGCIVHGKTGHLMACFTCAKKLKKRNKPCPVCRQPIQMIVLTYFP
Procedure: The MDM2 binding tests of all 17 compounds were carried out by a fluorescence polarization assay.
30 nM preincubated (30 min) MDM2 and 10 nM PMDM-F peptide in reaction buffer (100 μL, potassium phosphate, 100 mM; bovine gamma globulin, […]; sodium azide, 0.02%) were added into a 96-well plate containing tested compounds at pH 7.5. […] The Ki values were calculated according to a reported method.

Cathepsin K = biological target: T1, Cathepsin K (Homo sapiens, UniProt P43235); assay: Cathepsin K inhibitory activity; assay type: biochemical
T1 sequence (P43235 115-329): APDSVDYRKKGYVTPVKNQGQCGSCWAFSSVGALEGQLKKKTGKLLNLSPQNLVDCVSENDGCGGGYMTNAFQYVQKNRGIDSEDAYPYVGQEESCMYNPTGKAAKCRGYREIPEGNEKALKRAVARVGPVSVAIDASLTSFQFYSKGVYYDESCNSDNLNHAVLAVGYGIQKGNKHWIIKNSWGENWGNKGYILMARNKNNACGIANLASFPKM

HCT116 (p53 +/+) cells = assay: cells; assay type: cell-based, human; details: read-out: IC50 (μM) ± SD HCT116 (p53 +/+)
Procedure: (§1) Compounds were tested at six concentrations (0.001–100 μM).
(§2) The cells were seeded into a 96-well plate and incubated at 37°C in 5% CO2 for 24 h, after which the test compounds were added to the culture medium and the cells were incubated for 48 h. 20 μL fresh MTT was added to each well, and the cells were incubated at 37°C in 5% CO2 for 4 h. After removing the culture medium, 150 μL DMSO was added to dissolve the formazan crystals. The absorbance at 540 nm was measured using a microplate reader. The results, expressed as IC50 values, were the average of three determinations and were calculated using nonlinear regression analysis.

HCT116 (p53 -/-) cells = assay: cells; assay type: cell-based, human; details: read-out: IC50 (μM) ± SD HCT116 (p53 -/-)
Procedure: as §1, §2

MCF7 (p53 +/+) cells = assay: cells; assay type: cell-based, human; details: read-out: IC50 (μM) ± SD MCF7 (p53 +/+)
Procedure: as §1, §2

MCF7 (p53 -/-) cells = assay: cells; assay type: cell-based; details: Homo sapiens, read-out: IC50 (μM) ± SD MCF7 (p53 -/-)
Procedure: as §1, §2

human MDM2 = details: training set, cited from earlier work; for IC50: ref 24 (TS-1), 25 (TS-2), 12 (TS-3), 26 (TS-4), 8 (TS-6), 28 (TS-7), read-out: Potency human MDM2 (nM), IC50
[1] = Homo sapiens, HCT-116, MTT, 48 h

| Structure (SMILES) | Ki (MDM2) [µM] | Inhibition (200 μM, %) (MDM2; 200 µM) [%] | inhibition at 200 µM (MDM2) [%] | IC50 (Cathepsin K; read-out: Cathepsin K IC50) [µM] | also measured |
| --- | --- | --- | --- | --- | --- |
| CCOC(=O)c1cc(C(C)c2ccccc2)sc1NC(=O)c1cccc(COc2ccccc2Cl)c1 (stereo not shown) [Compound 1, Ethyl 2-({3-[(2-chlorophenoxy)methyl]benzoyl}amino)-5-(1-phenylethyl)-3-thiophenecarboxylate] | 43.5 | 80.2 | > 80 | > 200 | – |
| C=CCn1c(SCC(=O)N2N=C(c3ccco3)CC2c2ccco2)nnc1-c1ccncc1 (stereo not shown) [Compound 2, 4-allyl-5-(4-pyridinyl)-4H-1,2,4-triazol-3-yl 2-[3,5-di(2-furyl)-4,5-dihydro-1H-pyrazol-1-yl]-2-oxoethyl sulfide] | 9.5 | 95.8 | > 80 | > 200 | IC50 (HCT116 (p53 +/+) cells; [1]): 35.5 ± 1.48 µM; IC50 (HCT116 (p53 -/-) cells; [1]): 58.2 ± 4.57 µM; IC50 (MCF7 (p53 +/+) cells; Homo sapiens, MCF7, MTT, 48 h): > 100 µM; IC50 (MCF7 (p53 -/-) cells; MCF7, MTT, 48 h): > 100 µM |
| O=c1nc(SCc2nc3ccccc3n2Cc2ccccc2)[nH]c2ccccc12 [Compound 3, 2-{[(1-benzyl-1H-benzimidazol-2-yl)methyl]sulfanyl}-4(1H)-quinazolinone] | 104 | – | 62.4 | > 200 | – |
| CC(C)N(C(=O)Cn1c(COc2ccc3ccccc3c2)nc2ccccc21)c1ccccc1 [Compound 4, N-isopropyl-2-{2-[(2-naphthyloxy)methyl]-1H-benzimidazol-1-yl}-N-phenylacetamide] | 99.5 | – | 76.3 | > 200 | – |
| O=S(=O)(Nc1nc2ccccc2nc1Nc1cccc(O)c1)c1ccc(Cl)cc1 [Compound 5, 4-chloro-N-[3-(3-hydroxyanilino)-2-quinoxalinyl]benzenesulfonamide] | 8.5 | 90.31 | > 80 | > 200 | IC50 (HCT116 (p53 +/+) cells; Homo sapiens, HCT-116, 48 h): 17.4 ± 1.8 µM; IC50 (HCT116 (p53 -/-) cells; Homo sapiens, HCT-116, 48 h): 40.8 ± 3.54 µM; IC50 (MCF7 (p53 +/+) cells; Homo sapiens, MCF7, 48 h): 40.2 ± 1.77 µM; IC50 (MCF7 (p53 -/-) cells; MCF7, 48 h): 56.4 ± 4.12 µM |
| CCOC(=O)/C=C1\NC(C)(C)Cc2cc(OC)c(OC)cc21 [Compound 6, Ethyl (6,7-dimethoxy-3,3-dimethyl-3,4-dihydro-1(2H)-isoquinolinylidene)acetate] | > 200 | 46.6 | < 50 | > 200 | – |
| CCc1nnc(NC(=O)CSc2nnc(COc3ccccc3)n2-c2ccc(C)cc2)s1 [Compound 7, N-(5-ethyl-1,3,4-thiadiazol-2-yl)-2-{[4-(4-methylphenyl)-5-(phenoxymethyl)-4H-1,2,4-triazol-3-yl]sulfanyl}acetamide] | 98.3 | – | 63.7 | > 200 | – |
| C=CCn1c(COc2ccccc2)nnc1SC(C)C(=O)NN=Cc1ccccc1F (stereo not shown) [Compound 8, 2-{[4-allyl-5-(phenoxymethyl)-4H-1,2,4-triazol-3-yl]sulfanyl}-N'-(2-fluorobenzylidene)propanohydrazide] | 23.4 | 84.7 | > 80 | > 200 | IC50 (HCT116 (p53 +/+) cells; [1]): > 100 µM; IC50 (HCT116 (p53 -/-) cells; [1]): > 100 µM; IC50 (MCF7 (p53 +/+) cells; Homo sapiens, MCF7, MTT, 48 h): > 100 µM; IC50 (MCF7 (p53 -/-) cells; MCF7, MTT, 48 h): > 100 µM |
| O=C(c1cc2n(n1)C(C(F)(F)F)CC(c1ccc(Br)cc1)N2)N(Cc1ccccc1)c1ccccc1 (stereo not shown) [Compound 9, N-benzyl-5-(4-bromophenyl)-N-phenyl-7-(trifluoromethyl)-4,5,6,7-tetrahydropyrazolo[1,5-a]pyrimidine-2-carboxamide] | > 200 | 37.6 | < 50 | > 200 | – |
| COc1cccc(OCC(=O)N(Cc2nc(-c3ccccc3)no2)C2CCCCC2)c1 [Compound 10, N-cyclohexyl-2-(3-methoxyphenoxy)-N-[(3-phenyl-1,2,4-oxadiazol-5-yl)methyl]acetamide] | 3.2 | 96.5 | > 80 | > 200 | IC50 (HCT116 (p53 +/+) cells; Homo sapiens, HCT-116, 48 h): 12.6 ± 2.32 µM; IC50 (HCT116 (p53 -/-) cells; Homo sapiens, HCT-116, 48 h): 24.1 ± 2.31 µM; IC50 (MCF7 (p53 +/+) cells; Homo sapiens, MCF7, 48 h): 19.4 ± 2.26 µM; fold less potent in MDM2 binding affinity than nutlin-3a (MDM2; versus nutlin-3a): approximately 20 fold; IC50 (MCF7 (p53 -/-) cells; MCF7, MTT, 48 h): 26.7 ± 1.65 µM |
| COC(=O)C1C(CBr)N1N1C(=O)c2ccccc2C1=O (stereo not shown) [Compound 13, Methyl 3-(bromomethyl)-1-(1,3-dioxo-1,3-dihydro-2H-isoindol-2-yl)-2-aziridinecarboxylate] | > 200 | 42.9 | < 50 | – | IC50 (Cathepsin K): > 200 µM |
| O=C(O)CC1c2ccccc2CCN1S(=O)(=O)c1ccccc1 (stereo not shown) [Compound 15, [2-(phenylsulfonyl)-1,2,3,4-tetrahydroisoquinolin-1-yl]acetic acid] | 23.1 | 82.1 | > 80 | > 200 | IC50 (HCT116 (p53 +/+) cells; [1]): 28.1 ± 2.53 µM; IC50 (HCT116 (p53 -/-) cells; [1]): 51.7 ± 4.15 µM; IC50 (MCF7 (p53 +/+) cells; Homo sapiens, MCF7, MTT, 48 h): > 100 µM; IC50 (MCF7 (p53 -/-) cells; MCF7, MTT, 48 h): > 100 µM |
| COc1ccc(C2=N[C@@H](c3ccc(Cl)cc3)[C@@H](c3ccc(Cl)cc3)N2C(=O)N2CCNC(=O)C2)c(OC(C)C)c1 [Nutlin-3a, reference compound] | – | – | – | – | IC50 (HCT116 (p53 +/+) cells; MTT, 48 h): 18.1 ± 2.17 µM; IC50 (HCT116 (p53 -/-) cells; MTT, 48 h): 40.7 ± 1.47 µM; IC50 (MCF7 (p53 +/+) cells; MTT, 48 h): 32.2 ± 1.49 µM |
| CCOc1cc(C(C)(C)C)ccc1C1=NC(C)(c2ccc(Cl)cc2)C(C)(c2ccc(Cl)cc2)N1C(=O)N1CCN(CCCS(C)(=O)=O)CC1 (stereo not shown) [TS-2] | – | – | – | – | IC50 (human MDM2): 18 nM |
| CC(C)(C)C[C@H]1N[C@@H](C(N)=O)[C@H](c2cccc(Cl)c2F)C12C(=O)Nc1cc(Cl)ccc12 (stereo partly shown) [TS-5] | – | – | – | – | Ki (human MDM2; read-out: Potency human MDM2 (nM), Ki): 3 nM |
| O=C(NCCN1CCOCC1)c1[nH]c2cc(Cl)ccc2c1-c1c(-c2ccccc2)ncn1Cc1ccc(Cl)cc1 [TS-6] | – | – | – | – | IC50 (human MDM2): 30 nM |

Continued, in another order:

| Ki (MDM2) [µM] | Inhibition (200 μM, %) (MDM2; 200 µM) [%] | inhibition at 200 µM (MDM2) [%] | IC50 (Cathepsin K; read-out: Cathepsin K IC50) [µM] | Structure (SMILES) | also measured |
| --- | --- | --- | --- | --- | --- |
| > 200 | 32.3 | < 50 | > 200 | COc1ccc(OCc2nnc3sc(COc4ccccc4Cl)nn23)cc1 [Compound 11, 6-[(2-chlorophenoxy)methyl]-3-[(4-methoxyphenoxy)methyl][1,2,4]triazolo[3,4-b][1,3,4]thiadiazole] | – |
| > 200 | 18.8 | – | > 200 | [N-]=[N+]=CC(=O)C(O)(c1ccccc1)C(Cl)c1ccccc1 (stereo not shown) [Compound 12, 4-chloro-1-diazo-3-hydroxy-3,4-diphenyl-2-butanone] | Inhibition (200 μM, %) (MDM2; listed as AB-131/42300827, 200 µM): < 50% |
| 127 | – | 68.6 | > 200 | CCOC(=O)c1nnn(-c2nonc2N)c1CNc1ccccc1 [Compound 14, Ethyl 1-(4-amino-1,2,5-oxadiazol-3-yl)-5-(anilinomethyl)-1H-1,2,3-triazole-4-carboxylate] | – |
| – | – | 72.4 | > 200 | Cc1nn(-c2ccccc2)c(O)c1/N=N/c1cccc2ncccc12 [Compound 16, 3-Methyl-1-phenyl-4-(quinolin-5-yldiazenyl)-1H-pyrazol-5-ol] | Ki (MDM2; fluorescence polarization, eight concentrations 0.091–200 μM): 64.6 µM |
| > 200 | 47.3 | < 50 | > 200 | CCOC(=O)c1c(-c2ccccc2)oc2ccc(O)c(CN(C)C)c12 [Compound 17, Ethyl 4-[(dimethylamino)methyl]-5-hydroxy-2-phenyl-1-benzofuran-3-carboxylate] | – |
| – | – | – | 0.001 | CC(C)(F)C[C@H](N[C@@H](c1ccc(-c2ccc(S(C)(=O)=O)cc2)cc1)C(F)(F)F)C(=O)NC1(C#N)CC1 [Odancatib, reference compound] | – |
